In PubChem BioAssay (NCI):
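Growth conditions: 96-well plates. Treatment: test compound, 48 hours, 5 concentrations. Analysis: linear interpolation between bracketing concentrations; unreached endpoints set to highest concentration. TGI marks complete inhibition of growth.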

Columns and labels:
Experiment in all cases: NCI tumour cell line growth inhibition, 48 h
DLD-1 colon = system: DLD-1 colon
DMS 114 small cell lung = system: DMS 114 small cell lung
HOP-18 NSCLC = system: HOP-18 NSCLC
KM20L2 colon = system: KM20L2 colon
LXFL 529 NSCLC = system: LXFL 529 NSCLC
SNB-78 CNS = system: SNB-78 CNS
XF 498 CNS = system: XF 498 CNS
RXF-631 renal = system: RXF-631 renal
P388 leukemia = system: P388 leukemia
P388/ADR leukemia = system: P388/ADR leukemia
SN12K1 renal = system: SN12K1 renal

Compound	TGI (DLD-1 colon)	TGI (DMS 114 small cell lung)	TGI (HOP-18 NSCLC)	TGI (KM20L2 colon)	TGI (LXFL 529 NSCLC)	TGI (SNB-78 CNS)	TGI (XF 498 CNS)	TGI (RXF-631 renal)	TGI (P388 leukemia)	TGI (P388/ADR leukemia)	TGI (SN12K1 renal)
O=C1NC2OC(CO)C(O)C(O1)C2O (stereo unspecified)	> 100 µM	> 100 µM	> 100 µM	> 100 µM	> 100 µM	> 100 µM	> 100 µM				
Cc1cccc(C)c1NC(=O)C(=O)C1C(=O)NC(=O)NC1=O	> 100 µM	> 100 µM	> 100 µM	> 100 µM	> 100 µM	> 100 µM	> 100 µM	> 100 µM			
CSC(C1c2ccccc2N(c2ccc(C)cc2)C2=NC(=O)N(C)C(=O)C21Cl)S(=O)(=O)c1ccc(C)cc1 (stereo unspecified)	33.5 µM	49.8 µM		48.4 µM	42.1 µM	80.1 µM	65.2 µM				
COc1c(Br)cc(CC(N)=O)c(O)c1Br	> 100 µM	> 100 µM	> 100 µM	> 100 µM		> 100 µM	> 100 µM	> 100 µM			
COC(=O)C1CC2(c3ccccc3)C(=O)c3ccccc3N2O1 (stereo unspecified)	> 100 µM	> 100 µM	> 100 µM	> 100 µM	> 100 µM	> 100 µM					
COC1(OC)CCCCC2c3cccc(OC(C)=O)c3C21OC(C)=O (stereo unspecified)	> 100 µM	> 100 µM	> 100 µM		> 100 µM	> 100 µM	> 100 µM				
O=C(Nc1cccc(O)c1)C(=O)C(C(=O)c1ccccc1F)C1OC(=O)c2ccccc21 (stereo unspecified)	> 100 µM	40.7 µM		58.9 µM	88.8 µM	92.9 µM		93.5 µM			
O=C(N/N=C/c1cc(Br)cc(Br)c1[O-])c1ccccc1O.O=C(N/N=C/c1cc(Br)cc(Br)c1[O-])c1ccccc1O.[Fe+2]				17.4 µM							
O=C(O)C(CS)N=c1c2ccccc2n(O)c2ccccc12 (stereo unspecified)	> 100 µM	> 100 µM	> 100 µM	> 100 µM	> 100 µM	> 100 µM		> 100 µM			
CCCCN=C(NC#N)NCCCC	> 100 µM	> 100 µM	> 100 µM	> 100 µM	> 100 µM	> 100 µM	> 100 µM	> 100 µM			
NC(N)=Nc1ncccc1[N+](=O)[O-]	> 100 µM	30.5 µM	> 100 µM	70.2 µM		> 100 µM	> 100 µM		> 100 µM	> 100 µM	> 100 µM
CCOC(=O)C1=C(OC(OCC)C(CC)[Se]c2ccccc2)CCCC1 (stereo unspecified)	35.5 µM		86.4 µM	37.3 µM	91.8 µM	> 100 µM	46.5 µM	27.9 µM			
O=C(O)C(CO)NC(=O)n1c2ccccc2c2ccccc21 (stereo unspecified)	> 100 µM	> 100 µM	> 100 µM		> 100 µM		> 100 µM				
COC(=O)c1c/c(=N\NC(=O)CC(=O)Nc2ccccc2OC)c2ccccc2o1	> 100 µM	> 100 µM	> 100 µM	> 100 µM	> 100 µM	> 100 µM					
COC(=O)/C(=N/NC(=O)C[N+](C)(C)C)C(C(=O)OC)C(=O)C(=O)Nc1ccc(F)cc1 (stereo unspecified)	> 100 µM	> 100 µM	> 100 µM	> 100 µM	> 100 µM	> 100 µM		> 100 µM			
